Patent US20220127258A1, “AROMATIC RING OR HETEROAROMATIC RING COMPOUNDS, PREPARATION METHOD THEREFOR AND MEDICAL USE THEREOF” (The National Institutes of Pharmaceutical R&D Co., Ltd., priority 2019, published 2022)
Read-outs that look alike come from different tables or passages of the source.

Tests used:
[1] = Plasma and liver concentration of the compound after 4 days of administration in the cholestasis rat induced by ANIT; assay type: in vivo, SD rats; settings: for concentration at 2 h / concentration at 4 h / Kp at 2 h / Kp at 4 h: SD, oral; for Kp at 2 h / Kp at 4 h: liver/plasma; for concentration at 4 h / Kp at 4 h / Liver concentration of the compound: 4 h
Procedure: Sample formulation: The compound of the present invention was added to DMSO, and dissolved completely by ultrasound. 0.5% CMC-Na was added to constant volume (DMSO: 0.5% CMC-Na=1:99), and the solution was homogenized by ultrasound for later use. After 3 to 5 days of acclimation, the animals were divided into 20 groups according to body weight: normal group, model group, Example 8 (3 mg/kg/d, 10 mg/kg/d) group, Example 11 (3 mg/kg/d, 10 mg/kg/d) group, Example 12 (3 mg/kg/d, 10 mg/kg/d) group, Example 14 (3 mg/kg/d, 10 mg/kg/d) group, Example 20 (3 mg/kg/d, 10 mg/kg/d) group, Example 22 (3 mg/kg/d, 10 mg/kg/d) group, Example 26 (3 mg/kg/d, 10 mg/kg/d) group, Example 28 (3 mg/kg/d, 10 mg/kg/d) group, and Example 29 (3 mg/kg/d, 10 mg/kg/d) group, with 10 rats for each group. Intragastric administration was conducted with an administration volume of 10 mL/kg, once a day, for a total of 4 days. On Day 2, ANIT (1-naphthyl isothiocyanate, Macklin, purity: 98%, item number: N814658, CAS number: 551-06-4, specification: 5 g/bottle, storage conditions: 2 to 8 degrees, batch number: C10116101) with a dose of 50 mg/kg and an administration volume of 5 mL/kg was administered intragastrically once to each animal (except for animals in the normal group) 4 hours after the administration. The animals were fasted on Day 4 morning. The animals were anesthetized by isoflurane inhalation using a small animal anesthesia machine. Blood was collected from the venous plexus behind the eyeball using a capillary glass tube (about 1 ml per animal), and then left to stand for about one hour. It was centrifuged at 3500 rpm for 10 minutes to obtain the serum. ALT, AST, GGT and TBA indexes as well as the plasma concentration of the compound were determined using an AU480 automatic biochemical analysis system (BECKMAN COULTER). Liver was collected, weighed, and cutted into pieces. Normal saline was added (liver weight: normal saline=1:2), and the mixture was homogenized and freezed. The concentration of the compound in liver was determined using an ultra performance liquid chromatograph (Shimadzu, LC 30AD) and triple quadrupole mass spectrometer (AB, TQ5500). The plasma concentration and liver concentration of the compound of the present invention after 4 days of administration in the cholestasis rat induced by ANIT are shown in Table 3, Table 4 and Table 5 below.

[2] = molecular target: T1, FXR (Homo sapiens, UniProt Q96RI1); assay: FXR agonistic activity, luciferase assay; assay type: cell-based; settings: luc2P-GAL4-HEK293 cells transfected with pBIND-FXR, 24 hours
T1 sequence (Q96RI1 262-486 limits assumed): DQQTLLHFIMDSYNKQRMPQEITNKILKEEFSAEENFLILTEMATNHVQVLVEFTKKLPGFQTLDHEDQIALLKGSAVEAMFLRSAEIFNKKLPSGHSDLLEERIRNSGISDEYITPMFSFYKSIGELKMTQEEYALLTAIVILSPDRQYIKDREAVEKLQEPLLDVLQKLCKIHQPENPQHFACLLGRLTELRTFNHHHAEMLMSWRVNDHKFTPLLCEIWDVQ
Procedure: The FXR agonistic activity of the compound of the present invention was evaluated using the luciferase assay.
The experimental process comprises the follows. The luc2P-GAL4-HEK293 stably transfected cell line (the cell line was established by transfecting pGL4.35 plasmid with HEK293 cells which was then subjected to Hygromycin B screening. The cell contained 9×GAL4 UAS and firefly luciferase reporter gene. The ligand-activated LBD-GAL4 DBD fusion protein can enter the nucleus to bind to 9×GAL4 UAS and activate the transcription of the downstream luciferase reporter gene) was transferred to a 96-well plate with […] per well. pBIND-FXR (Which was constructed by inserting FXR-LBD into pFN26A-BIND hRluc-neo Flexi® vector. The plasmid was 7.5 kb in size, Amp resistant, contained FXR-LBD, and can express FXR-LBD and GAL4 DBD fusion proteins) was transfected using X-tremeGENE HP transfection reagent. The ratio of plasmid to transfection reagent was 1 μg: 2 μl. The specific amount was 100 ng of plasmid and 0.2 μl of X-tremeGENE HP transfection reagent per well. The test compounds (the highest concentration of each compound was 30 μM, 3-fold dilution, a total of 10 concentrations) were added to induce the expression of luciferase. After 24 hours, the 96-well plate containing the test cells was taken out from the incubator, and placed at room temperature. Dual-Glo® Luciferase Reagent with the volume equal to the volume of the medium in the well (80 μl/well) was added to each well and mixed well. The plate was incubated at room temperature for 20 minutes to allow the cells to be fully lysed. All the liquid in the plate was transferred to a 96-well microtiter plate, and the firefly luciferin value was measured with a multi-function plate reader (manufacturer: Bio Tek (USA); model: Synergy4). Dual-Glo® a Stop & Glo® Reagent with the volume equal to the volume of the initial medium (80 μl/well) was added to each well and mixed well. The plate was incubated at room temperature for 10 minutes, and the renilla luciferin value was measured. The measurement order of renilla fluorescence should be the same as that of firefly fluorescence. Curve fitting and EC50 calculation were conducted using GraphPad Prism 5 software by nonlinear regression method. The fitting equation is: Y=Bottom+(Top−Bottom)/(1+10^((Log EC50−X)*HillSlope)), wherein EC50 refers to the semi-effective concentration, Top refers to the maximum effect, Bottom refers to the blank effect, and HillSlope refers to the slope.

[3] = liver, 3 mg/kg/day, 3 mg/kg/d, read-out: Liver concentration of the compound
[4] = liver, 10 mg/kg/day, 10 mg/kg/d, read-out: Liver concentration of the compound
[5] = plasma, 3 mg/kg/day, 3 mg/kg/d, read-out: Plasma concentration of the compound
[6] = plasma, 10 mg/kg/day, 10 mg/kg/d, read-out: Plasma concentration of the compound

| SMILES | concentration at 2 h [1, 3] [ng/g] | concentration at 4 h [1, 3] [ng/g] | concentration at 2 h [1, 4] [ng/g] | concentration at 4 h [1, 4] [ng/g] | Kp at 2 h ([1]; 3 mg/kg/day, 3 mg/kg/d) | Kp at 4 h ([1]; 3 mg/kg/day, 3 mg/kg/d) | Kp at 2 h ([1]; 10 mg/kg/day, 10 mg/kg/d) | Kp at 4 h ([1]; 10 mg/kg/day, 10 mg/kg/d) | concentration at 2 h [1, 5] [ng/mL] | concentration at 4 h [1, 5] [ng/mL] | concentration at 2 h [1, 6] [ng/mL] | concentration at 4 h [1, 6] [ng/mL] | EC50 [2] [nM] | Liver concentration of the compound ([1]; 10 mg/kg/d) |
| --- | --- | --- | --- | --- | --- | --- | --- | --- | --- | --- | --- | --- | --- | --- |
| O=C(O)c1ccc(-c2nnc(N3[C@@H]4CC[C@H]3C[C@@H](OCc3c(-c5c(Cl)cccc5Cl)noc3C3CC3)C4)o2)cc1 [Example 8, 4-(5-((1R,3r,5S)-3-((5-cyclopropyl-3-(2,6-dichlorophenyl)isoxazol-4-yl)methoxy)-8-azabicyclo[3.2.1]octan-8-yl)-1,3,4-oxadiazol-2-yl)benzoic acid] | 752 ± 419 | 1190 ± 162 | 986 ± 355 | 1190 ± 265 | 43.9 ± 65.2 | 61 ± 107 | 54.9 ± 37 | 105 ± 48.6 | 44.6 ± 36.9 | 130 ± 120 | 50.4 ± 74.4 | 16.7 ± 16.4 | < 25 |  |
| O=C(O)c1ccc(-c2nnc(N3[C@@H]4CC[C@H]3C[C@@H](OCc3c(-c5c(Cl)cccc5Cl)noc3C3CC3)C4)o2)s1 [Example 11] | 1590 | 1520 | 5660 |  | 3.9 ± 1.4 | 6.2 ± 3.9 | 9.5 ± 9.1 | 15.5 ± 12.7 | 401 ± 98.4 | 340 ± 253 | 1160 ± 1040 | 664 ± 739 | 100 to 500 | 3,614.0 ± 1,961.3 ng/g |
| Cc1cc(C(=O)O)ccc1-c1nnc(N2[C@@H]3CC[C@H]2C[C@@H](OCc2c(-c4c(Cl)cccc4Cl)noc2C2CC2)C3)o1 [Example 14] | 1240 | 1150 | 7840 |  | 7.4 ± 1.5 | 7.1 ± 1.6 | 21 ± 4.4 | 19.8 ± 7 | 168 ± 111 | 172 ± 75.3 | 402 ± 238 | 250 ± 72.4 | < 25 | 5,093.6 ± 2,197.5 ng/g |
| O=C(O)c1ccc(-c2nnc(N3[C@@H]4CC[C@H]3C[C@@H](OCc3c(-c5ccccc5OC(F)(F)F)noc3C3CC3)C4)o2)cc1 [Example 22, 4-(5-((1R,3r,5S)-3-((5-cyclopropyl-3-(2-(trifluoromethoxy)phenyl)isoxazol-4-yl)methoxy)-8-azabicyclo[3.2.1]octan-8-yl)-1,3,4-oxadiazol-2-yl)benzoic acid] | 3760 | 3090 | 12300 | 9660 | 16.1 ± 10.9 | 14.4 ± 6.5 | 14.2 ± 2.1 | 19.2 ± 6.9 | 440 ± 481 | 278 ± 192 | 903 ± 348 | 567 ± 242 | < 25 |  |
